Reference: US20240358846A1, “Nanoparticles and Peptides for the Delivery of Cargos to Muscle Cells” (4BASEBIO, S.L.U., priority 2021, published 2024)

Experiments:
[1] = Size and PDI of mRNA:lipid:peptide nanoparticles (FIG. 19); type: physicochemical; conditions: DOTMA/DOPE 2:1 with 10% cholesterol
Text: Table presented in FIG. 19 presents size (nm) and polydispersity index (PDI) values for the mRNA:lipid:peptide nanoparticles. Sizes of fully formed nanoparticles range from 31 nm for MD2, to 37 nm for MD3 while nanoparticles formulated without a peptide are 61 nm. PDI value is low across all samples which translates into low polydispersity of the nanoparticle population.

[2] = system: C2C12 cells; assay: GFP expression in C2C12 cells transfected with mRNA:lipid:peptide nanoparticles; type: cell-based, mouse; conditions: mRNA:lipid:peptide 1:5:2.5, DOTMA/DOPE 2:1 with 10% cholesterol, 500 ng/well, 4 h, FIG. 16
Procedure: Shown in FIG. 16 is GFP expression in C2C12 cells transfected with mRNA derived from linearised plasmid encapsulated in lipid-peptide nanoparticles.
(§1) Nanoparticles were formulated manually by pipetting following a mass ratios of 1:5:2.5 (mRNA:lipid:peptide). Firstly, the components mRNA, lipid and peptide were suspended in Ultra pure water in volumes of 60 ul, 60 ul and 80 ul, respectively. Components were mixed following the order-lipid to peptide, mRNA to lipid+peptide mix. Nanoparticles were allowed to incubate for 30 minutes at room temperature. All samples were diluted in serum-free media before transferring them onto cells. C2C12 cells were transfected with 500 ng/well of mRNA nanoparticles. The microplate was centrifuged at 12000 rpm for 5 minutes and incubated at 37 C for 4 hours. After 4 hours, cells were trypsinised and prepared for FAQs.

[3] = system: C2C12 cells; assay: GFP expression in C2C12 cells transfected with pDNA:lipid:peptide nanoparticles (flow cytometry, microscopy); type: cell-based, mouse; conditions: 48 h; for cells expressing GFP (GFP expression level, transfection efficiency): pDNA:lipid:peptide nanoparticles, different targeting sequences, FIG. 2; for cells expressing GFP (GFP expression level, transfection efficiency) / GFP transfection efficiency: DD 2:1 with 20% cholesterol; for GFP transfection efficiency: pDNA:lipid:peptide, MD2 in different conformations, FIG. 4
Procedure: C2C12 cells, an immortalised mouse myoblast line, were cultured in Dulbecco's Modified Eagle's Medium (DMEM, Gibco) containing 10% fetal bovine serum (FBS, Gibco) and 1% pen/strep (Gibco).
Transfections in C2C12 cells were performed with a range of peptide:liposome:nucleic acid cargo ratios. Transfections were performed in a 96-well plate at a density of 8,000 cells per well seeded 24 h previously. Charge and mass ratio of components in the transfection complex varied; DNA was maintained at a constant mass of 300 ng per well, while lipid component was altered. In one case, the molar ratio of the cationic lipid C18 to the phospholipid DOPE was kept at 1:1 (DD). In another case, the molar ratio of the cationic lipid C18 to the phospholipid DOPE was kept at 2:1 (DD 2:1), while cholesterol was added at a molar percentage of 10 or 20% of the total lipid content. The mass ratio of linear DNA:liposome:peptide was maintained at 1:3:3, while the muscle-cell binding peptides were in some cases altered.
(§2) Transfection complexes were formed via electrostatic interaction by vigorous pipetting, before diluting in a final volume of 200 μl per well, with a DNA concentration of 1.5 ng/μl. All dilutions were performed with OptiMEM reduced serum media. Controls included cells with no transfection complexes added (OptiMEM only).
Transfection complexes were incubated for 30 min at RT before adding to cells. All conditions were performed in triplicate. Cells were incubated at 37° C. for 4 hours, before replacing media with growth media. 48 h post-transfection, the cells were rinsed in PBS, before incubation in 0.05% Trypsin EDTA (Gibco) to detach the cells. Cells were then re-suspended in PBS for analysis by flow cytometry.

[4] = system: H9C2 cells; assay: GFP expression in H9C2 cells transfected with nucleic acid-lipid-peptide nanoparticles (flow cytometry); type: cell-based, rat; conditions: 300 ng/well; for GFP positive cells (transfection efficiency): mRNA in lipid-peptide nanoparticles, 4 h post transfection, FIG. 13; for cells GFP positive (transfection efficiency): 48 h post-transfection
Procedure: H9C2 cells, an immortalised cell line derived from embryonic rate heart tissue were cultured in Dulbecco's Modified Eagle's Medium (DMEM, Gibco) containing 10% fetal bovine serum (FBS, Gibco) and 1% pen/strep (Gibco).
Transfections in H9C2 cells were performed with a range of peptide:liposome:nucleic acid cargo ratios. Transfections were performed in a 96-well plate at a density of 8,000 cells per well seeded 24 h previously. Closed linear DNA/mRNA was maintained at a constant mass of 300 ng per well, while peptide component was altered. The molar ratio of the cationic lipid C18 to the phospholipid DOPE was kept at 2:1 (DD 2:1), while cholesterol was added at a molar percentage of 10% of the total lipid content. The mass ratio of closed linear DNA/mRNA:liposome:peptide was maintained at 1:5:2.52.
as §2, with “ul” for “μl”, “ng/ul.” for “ng/μl.”, “only), complexes targeting a different cell, or complexes with no targeting sequence component.” for “only).”
Transfection complexes were incubated for 30 min at RT before adding to cells. All conditions were performed in triplicate. Cells were incubated at 37° C. for 4 hours, before replacing media with growth media.
In the case of mRNA, 4 h post-transfection, the cells were rinsed in PBS, before incubation in 0.05% Trypsin EDTA (Gibco) to detach the cells. Cells were then resuspended in PBS for analysis by flow cytometry. In the case of closed linear DNA, 48 h post-transfection, the cells were rinsed in PBS, before incubation in 0.05% Trypsin EDTA (Gibco) to detach the cells. Cells were then resuspended in PBS for analysis by flow cytometry.

[5] = Size and polydispersity index of closed linear DNA-lipid-peptide nanoparticles by DLS (FIG. 15); type: physicochemical; conditions: C18/CHOL/DOPE (58/10/32)
Procedure: Dynamic Light Scattering (DLS) measurements were conducted using Zetasizer Ultra (Malvern Panalytical). Each bar represents average value of three measurements (n=3). Complexes were prepared as before, except formulated in nuclease-free water rather than Opti-MEM. Samples containing 0.7 μg closed linear DNA were diluted in 1 ml for analysis. Particles ranged from 37 nm (MD2L) to 57 nm (MD2CC), with PDI values ranging from 0.12 to 0.28. Liposomes encapsulating closed linear DNA with no targeting ligand were used as a control, with a larger size of 70 nm and PDI of 0.13.

[6] = system: HEK293 cells; assay: In-vitro transfection efficiency in HEK293 cells of closed linear DNA nanoparticles stored at +4° C. (luciferase assay); type: cell-based; conditions: 300 ng closed linear DNA nanoparticles stored up to 40 weeks at +4° C., tested every 5 weeks, FIG. 22B
Procedure: Nanoparticles were transfected in HEK293 cells at 5 week intervals. GFP expression was measured 48 h post transfection. n=3 in all experiments.
Shown in FIG. 22B is relative luminescence units per microgram of protein (RLU/mg of protein) of HEK293 cells transfected with closed linear DNA nanoparticles stored for 40 weeks at +4° C. […] Cells were transfected with 300 ng of closed linear DNA nanoparticles every 5 weeks.

[7] = system: C2C12 cells; assay: GFP expression in C2C12 cells transfected with closed linear DNA:lipid:peptide nanoparticles; type: cell-based, mouse; conditions: DOTMA/DOPE 2:1 with 10% cholesterol, 300 ng/well, 48 h, FIG. 20
Procedure: GFP expression was measured 48 h post transfection. n=3 in all experiments, error bars=S.D. Nanoparticles containing no peptide were used as a control. […] Nanoparticles containing no peptide in their formulation lead to a transfection efficiency of 12% indicating the lowest transfection efficiency in treated cells.
as §1, with “1:3:2.1.6 (closed linear DNA:lipid:peptide).” for “1:5:2.5 (mRNA:lipid:peptide).”, “closed linear DNA,” for “components mRNA,”, “closed linear DNA” for “mRNA”, “300” for “500”, “closed linear DNA.” for “mRNA nanoparticles.”, “Flow Cytometry analysis.” for “FAQs.”

[8] = Size and PDI of miRNA-lipid-peptide complexes, hand-mixing vs microfluidics (DLS); type: physicochemical; conditions: FIG. 23; for size of complexes: C18/DOPE 2:1 with 10% cholesterol
Text: Shown in FIG. 23 is size and polydispersity index (PDI) of miDNA-lipid-peptide complexes formulated through two different methods: hand-mixing—where complexes are formed by vigorous pipetting using a micropipette; or through a microfluidics platform. The lipid components comprised of C18/DOPE at a molar ratio of 2:1 with 10% cholesterol. The final formulation was following a mass ratio of 1:5 closed linear DNA:liposomes with N/P ratio of 6 driven by the peptide C1L-N-16-K16GAAPWHLSSQYSRT (SEQ ID NO: 49).
The hand-mixed complexes were formed by firstly suspending each of the components in ultra pure water, with the following mixing order-liposomes to peptide, closed linear DNA to liposomes+peptide complexes. Nanoparticles were allowed to incubate for 30 minutes at room temperature prior to a further dilution in water required for biophysical charaterisation by a DLS system (Zetasizer Ultra-Malvern).
For complexes formed through a microfluidics device (Nanoassemblr Ignite-Precision Nanosystems), lipid components were suspended in 99% pure ethanol at identical ratios to hand-mixed particles. Lipid components in ethanol were loaded onto the instrument along with miRNA and peptide C1L, both suspended in water. A flow rate ratio (FRR) of 1:3 of miRNA to lipid was mixed together at a total flow rate (TFR) of 12 mL/min prior to the addition of the peptide (FRR of 1:1, TFR 12 mL/min). The complexes formulated using the Nanoassemblr we then dialysed for 4 h using a Slide-a-Lyzer dialysis cassette (ThermoFisher) to remove residual ethanol.

[9] = Biophysical characterisation of DNA-lipid-peptide nanoparticle (DLS, ELS, MADLS); type: physicochemical
Procedure: The size in nm by Dynamic Light Scattering (DLS), zeta potential in mV by Electrophoretic Light Scattering (ELS), and concentration of particles per ml by Multi-Angle Dynamic Light Scattering (MADLS) of the hpDNA-lipid-peptide nanoparticles was determined using the Zetasizer Ultra (Malvern). Complexes were prepared as before, except formulated in nuclease-free water rather than Opti-MEM. Samples containing 0.7 μg plasmid were diluted in 1 ml for analysis.

[10] = system: HEK293 cells; assay: GFP expression in HEK293 cells transfected with plasmid DNA-peptide complexes or DNA-lipid-peptide nanoparticles; type: cell-based; conditions: particles formed using DNA and peptide only, 48 h, FIG. 5
Procedure: GFP expression was imaged 48 h post transfection. n=3 in all experiments, error bars=S.D.
The high expression in C2C12 compared with HEK293 cells is particularly impressive owing to the high transfection efficiency achievable in HEK293 cells.

[11] = plasmid DNA-lipid-peptide nanoparticles, FIG. 10
[12] = closed linear DNA-lipid-peptide nanoparticles, FIG. 11

Substance: SKTFNTHPQSTP [MD3]
- size [1]: 37 nm
- cells expressing GFP (transfection efficiency) [2]: 72%
- cells expressing GFP (GFP expression level, transfection efficiency) ([3]; C2C12): 22.68%

Substance: RRQPPRSISSHP [MD2]
- size [1]: 31 nm
- cells expressing GFP (transfection efficiency) [2]: 59%
- cells expressing GFP (GFP expression level, transfection efficiency) ([3]; C2C12): 50.1%

Substance: KKKKKKKKKKKKKKKKGAWLSEAGPVVTVRALRGTGSW [C2L-N-16]
- GFP positive cells (transfection efficiency) [4]: 26%

Substance: KKKKKKKKKKKKKKKKGARRQPPRSISSHP [MD2L]
- size (DLS) [5]: 37 nm
- GFP positive cells (transfection efficiency) [4]: 33%
- cells GFP positive (transfection efficiency) [4, 11]: 27%
- transfection efficiency after storage (luminescence signal, luciferase assay) [6]: sustained luminescence signal across all time points
- GFP transfection efficiency ([3]; C2C12): 8.24%

Substance: KKKKKKKKKKKKKKKKGAASSLNIA [MD1L]
- cells GFP positive (transfection efficiency) [4, 11]: 20%

Substance: KKKKKKKKKKKKKKKKRVRRGACASSLNIAC [MD1CC]
- cells expressing GFP (transfection efficiency) [7]: 29%

Substance: KKKKKKKKKKKKKKKKKKKKKKKKKKKKKKGACRRQPPRSISSHPC [MD2C-K30, targeting peptide named MD2C-K30]
- cells GFP positive (transfection efficiency) [4, 12]: 5%

Substance: KKKKKKKKKKKKKKKKGAAPWHLSSQYSRT [C1L-N-16]
- size of complexes ([8]; hand-mixed): 60 nm
- size of complexes ([8]; microfluidics): 40 nm
- PDI ([8]; hand-mixed): 0.23
- PDI ([8]; microfluidics): 0.16

Substance: KKKKKKKKKKKKKKKKRVRRGACRRQPPRSISSHPC [MD2CC]
- size (DLS) [5]: 57 nm
- GFP transfection efficiency ([3]; C2C12): 50.06%

Substance: KKKKKKKKKKKKKKKKGACRRQPPRSISSHPC [MD2C]
- size of the particle (DLS) ([9]; DNA-lipid-peptide nanoparticle, C18 (DOTMA) DOPE 10% cholesterol, FIG. 6A): 89.4 nm
- zeta potential (ELS) ([9]; DNA-lipid-peptide nanoparticle, C18 (DOTMA) DOPE 10% cholesterol, FIG. 6B): 24.8 mV
- particle titre (MADLS) ([9]; accounting for the 1 in 100 dilution, FIG. 6E, F): 10 E12 particles per ml
- GFP expression visualised by microscopy [10]: No GFP expression
- cells GFP positive (transfection efficiency) [4, 12]: 6%
- cells GFP positive (transfection efficiency) [4, 11]: 26%
- GFP transfection efficiency ([3]; C2C12): 30.08%
- GFP expression visualised by microscopy ([3]; C2C12, particles formed using DNA and peptide only, FIG. 5): some GFP expression
- GFP expression, C2C12 compared to HEK293 cells (specificity) ([3]; fully formed nanoparticle with lipid DD with 10% cholesterol, FIG. 5): much higher in C2C12 cells as compared to HEK293 cells

Substance: ASSLNIA [MD1]
- cells expressing GFP (transfection efficiency) [2]: 73%
- cells expressing GFP (GFP expression level, transfection efficiency) ([3]; C2C12): 73%

Substance: KKKKKKKKKKKKKKKKRVRRGACSKTFNTHPQSTPC [MD3CC]
- cells expressing GFP (transfection efficiency) [7]: 25%
